Assay results as given in patent US5516779A, “17β-substituted-6-azasteroid derivatives useful as 5α-reductase inhibitors” (Merck & Co., Inc., priority 1994, dated 1996).
Where two headings read alike, the source gives them in different places.

Biological target: T1, 5α-reductase type 1 (Homo sapiens, UniProt P18405)
T1 construct: Samples of human tissue were pulverized using a freezer mill and homogenized; from tissue; host or cells: human scalp tissue, crude nuclear pellet
T1 sequence (P18405 1-259): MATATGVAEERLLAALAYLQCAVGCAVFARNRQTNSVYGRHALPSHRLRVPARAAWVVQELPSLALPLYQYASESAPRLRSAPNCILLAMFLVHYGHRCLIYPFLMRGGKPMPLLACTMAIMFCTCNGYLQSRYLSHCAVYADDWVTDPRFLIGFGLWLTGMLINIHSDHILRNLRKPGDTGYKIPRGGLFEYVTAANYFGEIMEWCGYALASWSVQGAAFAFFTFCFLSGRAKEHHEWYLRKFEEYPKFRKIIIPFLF
Assay: Inhibition of 5α-reductase type 1 (conversion of testosterone to DHT, human scalp homogenate)
Format: biochemical
Experimental: Samples of human tissue were pulverized using a freezer mill and homogenized in 40 mM potassium phosphate, pH 6.5, 5 mM magnesium sulfate, 25 mM potassium chloride, 1 mM phenylmethylsulfonyl fluoride, 1 mM dithiothreitol (DTT) containing 0.25 M sucrose using a Potter-Elvehjem homogenizer. A crude nuclear pellet was prepared by centrifugation of the homogenate at 1,500 x g for 15 min. The crude nuclear pellet was washed two times and resuspended in two volumes of buffer. Glycerol was added to the resuspended pellet to a final concentration of 20%. The enzyme suspension was frozen in aliquots at -80° C. The prostatic and scalp reductases were stable for at least 4 months when stored under these conditions.
The reaction mixture for the type 1 5α-reductase contained 40 mM potassium phosphate, pH 6.5, […] [7-^3 H]-testosterone, 1 mM dithiothreitol and 500 µM NADPH in a final volume of 100 μl. The reaction mixture for the type 2 5α-reductase contained 40 mM sodium citrate, pH 5.5, 0.3 mM [7-^3 H]-testosterone, 1 mM dithiothreitol and 500 µM NADPH in a final volume of 100 μl. Typically, the assay was initiated by the addition of 50-100 μg prostatic homogenate or 75-200 μg scalp homogenate and incubated at 37° C. After 10-50 min. the reaction was quenched by extraction with 250 μl of a mixture of 70% cyclohexane: 30% ethyl acetate containing 10 μl each DHT and T. The aqueous and organic layers were separated by centrifugation at 14,000 rpm in an Eppendorf microfuge. The organic layer was subjected to normal phase HPLC (10 cm Whatman partisil 5 silica column equilibrated in 1 ml/min 70% cyclohexane: 30% ethyl acetate; retention times: DHT, 6.8-7.2 min.; androstanediol, 7.6-8.0 min.; T, 9.1-9.7 min.). The HPLC system consisted of a Waters Model 680 Gradient System equipped with a Hitachi Model 655α autosampler, Applied Biosystems Model 757 -variable UV detector, and a Radiomatic Model A120 radioactivity analyzer. The conversion of T to DHT was monitored using the radioactivity flow detector by mixing the HPLC effluent with one volume of Flo Scint 1 (Radiomatic). Under the conditions described, the production of DHT was linear for at least 25 min. The only steroids observed with the human prostate and scalp preparations were T, DHT and androstanediol.
Compounds were dissolved in 100% ethanol. The compound to be tested was pre-incubated with the enzyme (either 5α-reductase type 1 or 2) prior to initiation by addition of substrate testosterone. IC50 values represent the concentration of inhibitor required to decrease enzyme conversion of testosterone to dihydrotestosterone by 50% of the control. IC50 values were determined using a 6 point titration where the concentration of the inhibitor was varied from 0.1 to 1000 nM. Representative compounds of this invention were tested in the above described assay for 5α-reductase type 1 and type 2 inhibition.

[1] = 5α-reductase type 1, pH 6.5, 6 point titration, 0.1 to 1000 nM, "under about", read-out: IC50 for inhibition of the type 1 isozyme

SMILES	IC50 [1] [nM]	IC50 [nM]
CN1C[C@H]2[C@@H]3CC[C@H](O)[C@@]3(C)CC[C@@H]2[C@@]2(C)CCC(=O)C=C12 [XIII, 6-methyl-17-hydroxy-6-aza-androst-4-en-3-one]		< 100
CN1C[C@H]2[C@@H]3CC[C@H](OC(=O)NC(C)(C)C)[C@@]3(C)CC[C@@H]2[C@@]2(C)CCC(=O)C=C12 [XIV, 6-methyl-17-t-butylcarbamoyloxy-6-aza-androst-4-en-3-one]	< 100	
CC(C)CCC[C@@H](C)[C@H]1CC[C@H]2[C@@H]3CNC4=CC(=O)CC[C@]4(C)[C@H]3CC[C@]12C [XV, 6-aza-cholest-4-en-3-one]	< 100	
CC(C)CCC[C@@H](C)[C@H]1CC[C@H]2[C@@H]3CN(C)C4=CC(=O)CC[C@]4(C)[C@H]3CC[C@]12C [XVI, 6-methyl-6-aza-cholest-4-en-3-one]	< 100	

Second part, led by results:

IC50 [1] [nM]	SMILES	IC50 [nM]
< 100	CN1C[C@@H]2[C@H](CC[C@]3(C)C(=O)CC[C@@H]23)[C@@]2(C)CCC(=O)C=C12 [VII, 6-methyl-6-aza-androst-4-en-3,17-dione]	
< 100	CCC[C@H]1CC[C@H]2[C@@H]3CN(C)C4=CC(=O)CC[C@]4(C)[C@H]3CC[C@]12C [X, 6-methyl-17-propyl-6-aza-androst-4-en-3-one]	
< 100	CN1C[C@H]2[C@@H]3CCC[C@@]3(C)CC[C@@H]2[C@@]2(C)CCC(=O)C=C12 [XII, 6-methyl-6-aza-androst-4-en-3-one]	
